The results in this text go back to patent US20150322033A1, “ANTIBACTERIAL AGENT” (priority 2012, published 2015).

Converted amounts (≈) assume the structure as drawn. Where two headings read alike, the source gives them in different places. Some results are limits rather than exact numbers.

Assay [1] relates to S. aureus Mu50. In words: microbe, parasite or virus in culture. It counts as cell-based, Staphylococcus aureus. The following applies: for MIC: Staphylococcus aureus; for MIC (mg/L) Mu50: Example 1, Tables 1 to 10. The protocol: (§1) S. aureus Mu50 (refer to Hiramatsu, K., Hanaki H., et al., J. Antimicrob. Chemother., 1997, 40(1), 135-6) or S. aureus FDA209P (ATCC 6538P) was cultured overnight at 37° C. in 4 mL of TBS (Tryptical Soy Broth, produced by Becton Dickinson) with shaking. After completion of the culture, the cells were suspended in fresh TBS to prepare a cell suspension showing an absorbance of 0.3 at 578 nm. Then, the cell suspension was diluted 500 times with CAMHB mentioned above.
(§2) CAMHB containing each test compound at each of the aforementioned concentrations was added to each well of a 96-well plate in a volume of 50 μL/well, the aforementioned cell suspension diluted 500 time was added to the well in a volume of 50 μL/well, and stationary culture was carried out overnight at 37° C.
(§3) MIC values (mg/L) of the flavones and quinolones against the strains were measured in the same manner as that of the measurement of MIC of Example 1, except that CAMHB containing each of the aforementioned flavones and quinolones prepared in Example 2 was used instead of CAMHB containing each of the test compounds.
(§4) MIC values of the flavones and quinolone for the strains were measured in the same manners as those of Example 1, except that S. aureus Mu50 NR-1 was also used as Staphylococcus aureus in addition to S. aureus FDA209P and S. aureus Mu50, cell suspensions of the strains were prepared.
(§5) In the same manner as that of Example 1, MIC values of M-246, M-21, J-Q21, and J-Q12.1 for Staphylococcus aureus were measured. M-246 and M-21 were obtained as commercial products, and as J-Q21 and J-Q12.1, those synthesized in Examples 6 and 7 were used.

Assay [2] concerns S. aureus FDA209P (ATCC 6538P). Put plainly: microbe, parasite or virus in culture. The class given is cell-based, Staphylococcus aureus. The following applies: for MIC: Staphylococcus aureus. The protocol: as §1, §2, §3, §4, §5
The mark [3] stands for this setting: Example 1, Tables 1 to 10, read-out: MIC (mg/L) FDA209P.
[4] abbreviates: Example 8, Table 17, read-out: MIC FDA209P.
Setting [5] is: MU50, read-out: MIC Mu50, Example 8, Table 17.

With “2-phenylchromen-4-one (2-phenyl-1-benzopyran-4-one) [No. 25, reference compound]”, the “MIC (mg/L) Mu50 (S80F, S84L)” value in assay [1] (Example 3, Table 13) amounted to 64 mg/L. For the molecule `O.Oc1cc(O)c2c(c1)OC(c1ccc(O)c(O)c1)C(O)C2` (single isomer, unassigned; (+)) [compound 132, (+)-3,3′,4′,5,7-Flavanpentol Hydrate], the MIC in assay [2] (setting [3]) was 128 mg/L; in assay [1] (MU50, read-out: MIC (mg/L) Mu50, Example 1, Tables 1 to 10), 128 mg/L. With `O=c1cc(-c2ccccc2)oc2ccccc12.O=c1cc(-c2ccccc2)oc2ccccc12` [Compound 25], the “MIC (mg/L) S. aureus FDA209P” value in assay [2] (Example 2, Table 12) came to 128 mg/L. Moreover, the MIC ratio in assay [1] ((MIC value for S. aureus FDA209P)/(MIC value for S. aureus Mu50)) turned out to be 2. Besides, in assay [1] (Example 2, Table 12), the “MIC (mg/L) S. aureus Mu50” value came out at 64 mg/L. Consider `O=c1cc(-c2ccc(O)cc2)oc2c(C3CC3)c(O)cc(O)c12` [J-Q12.1, 8-Cyclopropyl-5,7-dihydroxy-2-(4-hydroxyphenyl)-chromen-4-one], for which the MIC in assay [2] (setting [4]) and in assay [1] (setting [5]) was 8 mg/L (≈ 25.8 µM) in each case. Regarding `O=c1cc(-c2ccc(O)cc2)oc2c(C3CC3)c(O)ccc12` [J-Q21, 8-Cyclopropyl-7-hydroxy-2-(4-hydroxyphenyl)chromen-4-one], the MIC is > 128 mg/L in assay [2] (setting [4]) and 4 mg/L (≈ 13.6 µM) in assay [1] (setting [5]).

In the case of `O=c1c(O)c(-c2ccccc2)oc2cc(O)c(O)c(O)c12` [M-21], the “MIC FDA209P” value in assay [2] (Example 8, Table 17) amounted to 64 µg/mL (≈ 224 µM). Besides, the “MIC Mu50” value in assay [1] (Example 8, Table 17) stood at 16 µg/mL (≈ 55.9 µM). Turning to `O=c1c(O)c(-c2ccc(O)cc2O)oc2cc(O)cc(O)c12` [compound 2], the “MIC (mg/L) FDA209P” value in assay [2] (Example 1, Tables 1 to 10) is recorded as >128 mg/L. Also, the “MIC (mg/L) Mu50” value in assay [1] is recorded as 128 mg/L (≈ 424 µM). Regarding `O=c1c(O)c(-c2ccc(O)cc2O)oc2cc(O)cc(O)c12` [compound 3], the “MIC (mg/L) FDA209P” value in assay [2] (Example 1, Tables 1 to 10) is listed as >128 mg/L. In assay [1], the “MIC (mg/L) Mu50” value is on record as >128 mg/L. On to `Cc1c(O)cc2oc(-c3ccc(O)c(O)c3)c(O)c(=O)c2c1O` [compound 5], for which the “MIC (mg/L) FDA209P” value in assay [2] (Example 1, Tables 1 to 10) came to 128 mg/L (≈ 405 µM). Also, the “MIC (mg/L) Mu50” value in assay [1] was found to be 128 mg/L (≈ 405 µM).

Take `Cc1c(O)cc(O)c2c(=O)cc(-c3ccccc3)oc12` [compound 8]: the “MIC (mg/L) FDA209P” value in assay [2] (Example 1, Tables 1 to 10) is given as >128 mg/L.

`COc1ccc(-c2cc(=O)c3c(OC)c(OC)c(OC)c(OC)c3o2)cc1OC` [compound 10]: in assay [2] (Example 1, Tables 1 to 10), the “MIC (mg/L) FDA209P” value worked out at 128 mg/L (≈ 318 µM). As for `COc1ccc(-c2cc(=O)c3c(OC)c(OC)c(OC)c(OC)c3o2)cc1` [compound 11], the “MIC (mg/L) FDA209P” value in assay [2] (Example 1, Tables 1 to 10) was >128 mg/L. Also, in assay [1], the “MIC (mg/L) Mu50” value was >128 mg/L.

As for `O=c1c(O)c(-c2ccccc2)oc2ccccc12` [compound 12], the “MIC (mg/L) FDA209P” value in assay [2] (Example 1, Tables 1 to 10) is >128 mg/L. In addition, the “MIC (mg/L) Mu50” value in assay [1] is reported as >128 mg/L.

Take `O=c1cc(-c2ccccc2)oc2ccc(O)cc12` [compound 13]: in assay [2] (Example 1, Tables 1 to 10), the “MIC (mg/L) FDA209P” value was >128 mg/L. Further, the “MIC (mg/L) Mu50” value in assay [1] is >128 mg/L. For `O=c1cc(-c2ccccc2)oc2c(O)c(O)ccc12` [compound 14], in assay [2] (Example 1, Tables 1 to 10), the “MIC (mg/L) FDA209P” value is on record as 64 mg/L (≈ 252 µM). Besides, in assay [1], the “MIC (mg/L) Mu50” value is recorded as 64 mg/L (≈ 252 µM). For the molecule `COc1ccc2oc(-c3ccccc3)cc(=O)c2c1` [compound 16], the “MIC (mg/L) FDA209P” value in assay [2] (Example 1, Tables 1 to 10) is listed as 128 mg/L (≈ 507 µM). Moreover, the “MIC (mg/L) Mu50” value in assay [1] is recorded as 128 mg/L (≈ 507 µM). Turning to `O=c1cc(-c2ccccc2)oc2cccc(O)c12` [compound 17], the “MIC (mg/L) FDA209P” value in assay [2] (Example 1, Tables 1 to 10) is listed as 128 mg/L (≈ 537 µM). In addition, the “MIC (mg/L) Mu50” value in assay [1] is given as 128 mg/L (≈ 537 µM). As to `COc1ccc(-c2cc(=O)c3c(OC)cc(OC)cc3o2)cc1` [compound 18], in assay [2] (Example 1, Tables 1 to 10), the “MIC (mg/L) FDA209P” value is 128 mg/L (≈ 410 µM). In addition, the “MIC (mg/L) Mu50” value in assay [1] came out at 128 mg/L (≈ 410 µM). For `COc1c(O)cc2oc(-c3ccc(O)cc3)cc(=O)c2c1O` [compound 26], the MIC in assay [2] (read-out: MIC (mg/L) FDA209P) was > 128 mg/L. For the molecule `COc1cc(-c2oc3c(OC)c(OC)c(OC)c(OC)c3c(=O)c2OC)cc2c1OCO2` [compound 35], the “MIC (mg/L) FDA209P” value in assay [2] (Example 1, Tables 1 to 10) was >128 mg/L. For `COc1cc(O)c(CN2CCCC(C)C2)c2oc(-c3ccccc3)cc(=O)c12` (stereo not drawn) [compound 53], the “MIC (mg/L) FDA209P” value in assay [2] (Example 1, Tables 1 to 10) amounted to 128 mg/L (≈ 337 µM). Turning to `COc1cc(O)c2c(=O)c(-c3cc4c(cc3C)OCCO4)c(C)oc2c1` [compound 86], the “MIC (mg/L) FDA209P” value in assay [2] (Example 1, Tables 1 to 10) is recorded as >128 mg/L.

Consider `CCc1oc2cc(O)cc(O)c2c(=O)c1-c1ccc(OC)cc1` [compound 90], for which the MIC in assay [2] (setting [3]) came out at 128 mg/L (≈ 410 µM).
